# Experimental data reported in patent US20240400983A1, “CELL AGGREGATE INCLUDING PITUITARY HORMONE-PRODUCING CELLS AND METHOD FOR PRODUCING SAME” (Sumitomo Pharma Co., Ltd., priority 2021, published 2024).
# No end group written: not given here.
# Legend:
# [1] = system: cell aggregates from human iPS cells; test: Comparison of SAG treatment period on ACTH secretion capacity of cell aggregates from human iPS cells; assay type: cell-based; settings: SAG until day 30 versus continued after day 30 (days 61, 103, 131)
# Description: Cell aggregates containing hypothalamic cells, pituitary progenitor cells, and pituitary hormone-producing cells were produced using the same differentiation induction method as in Example 1 (method without cell sorting using anti-EpCAM antibody). Regarding the SAG treatment period, two groups of a group in which SAG is added from immediately after the start of differentiation induction until day 30 (see FIG. 2), and a group so in which SAG is added from immediately after the start of differentiation induction and after day 30 (until days 61, 103, and 131) were set, and the ACTH secretion capacity was compared.
# [2] = system: cell aggregates containing pituitary hormone-producing cells (reaggregated EpCAM-positive cells from human ES cells); test: ACTH stimulation test using CRH or dexamethasone on reaggregated EpCAM-positive cell aggregates (ACTH ELISA of culture supernatant); assay type: cell-based; settings: 24 hr
# Description: An ACTH stimulation test using CRH (manufactured by NIPRO ES PHARMA CO., LTD.) was performed using cell aggregates obtained by purifying and reaggregating cell aggregates on day 62 after the start of differentiation induction and suspension culturing for 41 days. Twenty cell aggregates were transferred to a 10 cm suspension culture dish containing a serum-free medium (10 mL) supplemented with 20% KSR, cultured for 24 hr under condition of 37° C., 40% 02, and the culture supernatant was recovered. The cell aggregates were washed with a serum-free medium supplemented with 20% KSR, transferred to a new 10 cm suspension culture dish containing a serum-free medium (10 mL) supplemented with 20% KSR, and CRH 5 μg/mL was added. After culturing for 24 hr under condition of 37° C., 40% O2, the culture supernatant was recovered. The ACTH concentration in the collected culture supernatant was measured by the ELISA method used in clinical testing (testing outsourced to SRL, Inc.).
# In addition, the response of EpCAM-positive cell reaggregates to hormones was also examined. On day 60 after the start of differentiation induction, cell sorting was performed using an anti-EpCAM antibody, and then EpCAM-positive cells were reaggregated and cultured until day 103 after the start of differentiation induction. Thereafter, an ACTH stimulation test using CRH (manufactured by NIPRO ES PHARMA CO., LTD.) or dexamethasone (DX, manufactured by Aspen Japan K.K.) was conducted. Specifically, 20 cell aggregates were transferred to a 10 cm suspension culture dish containing 10 mL of serum-free medium supplemented with 20% KSR, and after culturing for 24 hr under conditions of 37° C., 40% 02, the culture supernatant was recovered. […] The ACTH concentration in the recovered culture supernatant was measured by the ELISA method used in clinical testing (testing outsourced to SRL, Ltd.). […]
# [3] = system: hypopituitary mice; test: Transplantation of EpCAM-positive cell reaggregates under the kidney capsule of hypopituitary mice; blood ACTH with CRH, dexamethasone or LPS stimulation; assay type: in vivo, mouse; design: dose or concentration left out as unconfirmed; settings: CRH intraperitoneal; blood 1 hr after; 4, 12, 24 weeks after transplantation
# Description: Thereafter, the cells were cultured up to day 107 after the start of differentiation induction and transplanted to under the capsule of the left kidney of hypopituitary mice (10-17 weeks old) whose pituitary was surgically removed (transplantation group). A control group (sham group) was also set in which only the transplantation procedure was performed and no EpCAM-positive cells were transplanted. In addition, hypopituitary mice whose pituitary gland was surgically removed were produced by performing using a transaural approach on SCID mice (7-9 weeks old, male). […] CRH stimulation was applied to the transplantation group and the sham group, and the effect on ACTH secretion capacity was examined. Specifically, mice were administered with CRH (2 pg/kg, intraperitoneal administration) 4, 12, or 24 weeks after transplantation, and blood was collected before CRH administration and 1 hr after CHR administration. Each blood ACTH concentration was measured using ACTH ELISA kit (MD Bioproducts).
# [4] = system: cell aggregates containing pituitary hormone-producing cells (day 63 sort, DX treated for 14 days); test: GH stimulation test using GRF and GH suppression test using somatostatin; assay type: cell-based, human; settings: day 63 sort + 40 days, DX 14 days; GRF 2 μg/mL, 24 hr
# Description: Using cell aggregates obtained by purifying and reaggregating cell aggregates on day 63 after the start of differentiation induction, suspension culturing for 40 days, and treating with DX for 14 days, a GH stimulation test using GRF and a GH suppression test using somatostatin were conducted. Fifteen cell aggregates were transferred to a 6-well culture plate (manufactured by SUMITOMO BAKELITE CO., LTD., for suspension culturing, culture area 9.2 cm^2) containing a serum-free medium (2 mL) supplemented with 20% KSR, cultured for 24 hr under conditions of 37° C., 40% O2, and the culture supernatant was recovered. The cell aggregates were washed with a serum-free medium supplemented with 20% KSR, transferred to a 6-well culture plate containing a new serum-free medium (2 mL) supplemented with 20% KSR, and GRF 2 μg/mL or somatostatin 100 ng/mL was added. After culturing for 24 hr under condition of 37° C., 40% O2, the culture supernatant was recovered. […]
molecule,measurement,setting,value
"CNC1CCC(N(Cc2cccc(-c3ccncc3)c2)C(=O)c2sc3ccccc3c2Cl)CC1 (stereo not drawn) [SAG, N-Methyl-N′-(3-pyridinylbenzyl)-N′-(3-chlorobenzo[b]thiophene-2-carbonyl)-1,4-diaminocyclohexane]",ACTH secretion capacity depending on SAG treatment period,[1],improved by stopping SAG treatment on day 30
C[C@@H]1C[C@H]2[C@@H]3CCC4=CC(=O)C=C[C@]4(C)[C@@]3(F)[C@@H](O)C[C@]2(C)[C@@]1(O)C(=O)CO [dexamethasone],decrease of ACTH secretion amount by dexamethasone stimulation,"[2]; day 60 sort, cultured to day 103, 500 ng/mL dexamethasone",about 50%
"CRH: CRH (manufactured by NIPRO ES PHARMA CO., LTD.) used for the ACTH stimulation test (SEEPPISLDLTFHLLREVLEMARAEQLAQQAHSNRKLMEII; ends and bridges not checked; UniProt P06850 154-194, looked up)",blood ACTH concentration after CRH stimulation in transplantation group,[3],further increase
same,increase of ACTH secretion amount by CRH stimulation,"[2]; day 60 sort, cultured to day 103, 5 μg/mL CRH",about 2.2 times
same,increase of the amount of ACTH secretion by addition of CRH,"[2]; day 62 sort + 41 days suspension culture, CRH 5 μg/mL",a little less than two times
"GRF: GRF used for the GH stimulation test (YADAIFTNSYRKVLGQLSARKLLQDIMSRQQGESNQERGARARL; ends and bridges not checked; UniProt P01286 32-75, looked up)",increase of the amount of GH secretion by addition of GRF,[4],a little less than two times
